We go through two compounds from the NIST ThermoML archive (doi:10.1016/j.fluid.2018.01.023).

The series is described as follows: xn = mol fraction of the nth substance listed. Particulars: 92 K, Liquid, Buoyancy - hydrostatic balance with magnetic suspension - one sinker.

Molecules are shown by their SMILES. ± gives the expanded uncertainty stated by the source.

The term mass density denotes mass per unit of volume. As to `CC` [ethane] + N#N, the mass density (138.3 kPa, x1 = 0.967) turned out to be 650.5 ± 1.2 kg/m3 and the mass density (1039.4 kPa, x1 = 0.952) amounted to 651.3 ± 0.9 kg/m3.
On to `N#N` [nitrogen] + C, for which the mass density (159.1 kPa, x2 = 0.884) is reported as 451 ± 0.7 kg/m3.
